Data: PubChem BioAssay AID1259411 (Chemical Carcinogenesis Research Information System (CCRIS), 2018)
Calls of active or inactive are those of the source. No rule for the calls is given here.

Tested on: rodent carcinogenicity bioassays, tumor incidence
Assay: CCRIS carcinogenicity studies
In short: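 NCI-built, expert-reviewed records of carcinogenicity and related test outcomes (mutagenicity, tumor promotion/inhibition) compiled from published and report sources, historical span 1985-2011, not updated.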

SMILES: C=CCl
- carcinogen call (Species: HAMSTER, Strain/Sex: SYRIAN/MALE, Route: INHALATION, Dose: 0, 50, 250, 500, 2500, 6000, 10000 PPM 4 HR/D, 5 D/WK FOR (STUDY DURATION: 109 WK), Dose: 0, 50, 250, 500, 2500, 6000, 10000 PPM 4 HR/D, 5 D/WK FOR (STUDY DURATION: 109 WK), Tumor Site: Type of Lesion: INTEGUMENTARY SYSTEM (SKIN): EPITHELIOMA, FORESTOMACH: PAPILLOMA OR ACANTHOMA, LIVER: ANGIOMA OR ANGIOSARCOMA, Tumor Site: Type of Lesion: INTEGUMENTARY SYSTEM (SKIN): EPITHELIOMA, FORESTOMACH: PAPILLOMA OR ACANTHOMA, LIVER: ANGIOMA OR ANGIOSARCOMA): active; positive
- carcinogen call (Species: HAMSTER, Strain/Sex: SYRIAN, Route: INHALATION, Tumor Site: Type of Lesion: LIVER): active; positive
- carcinogen call (Species: HUMAN, Route: INHALATION, Tumor Site: Type of Lesion: LIVER, BRAIN, LUNG, Tumor Site: Type of Lesion: LIVER, BRAIN, LUNG): active; positive
- carcinogen call (Species: MOUSE, Strain/Sex: ICR/FEMALE, Route: INHALATION, Dose: 0, 50, 500, 5000, 50000 PPM ONCE FOR 1 HR (STUDY DURATION: 18 MO), Dose: 0, 50, 500, 5000, 50000 PPM ONCE FOR 1 HR (STUDY DURATION: 18 MO), Tumor Site: Type of Lesion: LUNG: ALVEOLAR/BRONCHIOLAR ADENOMA OR CARCINOMA): active; positive
- carcinogen call (Species: MOUSE, Strain/Sex: ICR/MALE, Route: INHALATION, Dose: 0, 50, 500, 5000, 50000 PPM ONCE FOR 1 HR (STUDY DURATION: 18 MO), Dose: 0, 50, 500, 5000, 50000 PPM ONCE FOR 1 HR (STUDY DURATION: 18 MO), Tumor Site: Type of Lesion: LUNG: ALVEOLAR/BRONCHIOLAR ADENOMA OR CARCINOMA): active; positive
- carcinogen call (Species: MOUSE, Strain/Sex: SWISS/MALE,FEMALE, Route: INHALATION, Dose: 0, 50, 250, 500, 2500, 6000, 10000 PPM 4 HR/D, 5 D/WK FOR 30 WK (STUDY DURATION: 81 WK), Dose: 0, 50, 250, 500, 2500, 6000, 10000 PPM 4 HR/D, 5 D/WK FOR 30 WK (STUDY DURATION: 81 WK), Tumor Site: Type of Lesion: LIVER: ANGIOMA, ANGIOSARCOMA, LUNG: TUMOR (NOS), MAMMARY GLAND: CARCINOMA, Tumor Site: Type of Lesion: LIVER: ANGIOMA, ANGIOSARCOMA, LUNG: TUMOR (NOS), MAMMARY GLAND: CARCINOMA): active; positive
- carcinogen call (Species: MOUSE, Strain/Sex: SWISS, Route: INHALATION, Tumor Site: Type of Lesion: LIVER, LUNG, MAMMARY GLAND, Tumor Site: Type of Lesion: LIVER, LUNG, MAMMARY GLAND): active; positive
- carcinogen call (Species: RAT, Route: INHALATION, Tumor Site: Type of Lesion: LIVER, LUNG, KIDNEY, EAR (ZYMBAL GLAND), Tumor Site: Type of Lesion: LIVER, LUNG, KIDNEY, EAR (ZYMBAL GLAND)): active; positive
- carcinogen call (Species: RAT, Strain/Sex: SPRAGUE-DAWLEY/FEMALE, Route: GAVAGE, Dose: 0, 0.03, 0.3, 1, 3.33, 16.65, 50 MG/KG BW IN OLIVE OIL 1/D 4-5 D/WK FOR 52-59 WK (STUDY DURATION: LIFETIME), Dose: 0, 0.03, 0.3, 1, 3.33, 16.65, 50 MG/KG BW IN OLIVE OIL 1/D 4-5 D/WK FOR 52-59 WK (STUDY DURATION: LIFETIME), Tumor Site: Type of Lesion: [BRAIN WAS ONLY SITE EVALUATED]): inactive; negative
- carcinogen call (Species: RAT, Strain/Sex: SPRAGUE-DAWLEY/FEMALE, Route: INHALATION, Dose: 0, 50, 250, 500, 2500, 6000, 10000 PPM IN AIR 4 HR/D 5 D/WK FOR 17 WK (STUDY DURATION: LIFETIME), Dose: 0, 50, 250, 500, 2500, 6000, 10000 PPM IN AIR 4 HR/D 5 D/WK FOR 17 WK (STUDY DURATION: LIFETIME), Tumor Site: Type of Lesion: BRAIN: NEUROBLASTOMA [ONLY SITE EVALUATED]): active; positive
- carcinogen call (Species: RAT, Strain/Sex: SPRAGUE-DAWLEY/FEMALE, Route: INHALATION, Dose: 0, 2500 PPM 4 HR/D 5 D/WK FOR 7 WK THEN 7 HR/D 5 D/WK FOR 8 WK ADMINISTERED TO RAT EMBRYOS BEGINNING ON 12TH DAY OF GEST, Tumor Site: Type of Lesion: LIVER: HEPATOMA, ANGIOSARCOMA, BRAIN: NEUROBLASTOMA): active; positive
- carcinogen call (Species: RAT, Strain/Sex: SPRAGUE-DAWLEY/FEMALE, Route: INHALATION, Dose: 0, 2500 PPM 4 HR/D 5 D/WK FOR 7 WK THEN 7 HR/D 5 D/WK FOR 69 WK ADMINISTERED TO BREEDER RATS (STUDY DURATION: 76 WK), Tumor Site: Type of Lesion: BRAIN: NEUROBLASTOMA, LIVER, HEPATOCARCINOMA, ANGIOSARCOMA, Tumor Site: Type of Lesion: BRAIN: NEUROBLASTOMA, LIVER, HEPATOCARCINOMA, ANGIOSARCOMA): active; positive
- carcinogen call (Species: RAT, Strain/Sex: SPRAGUE-DAWLEY/FEMALE, Route: INHALATION, Dose: 0, 2500 PPM 4 HR/D 5 D/WK FOR 7 WK THEN 7 HR/D 5 D/WK FOR 69 WK ADMINISTERED TO RAT EMBRYOS BEGINNING ON 12TH DAY OF GES, Tumor Site: Type of Lesion: BRAIN: NEUROBLASTOMA, LIVER, HEPATOCARCINOMA, ANGIOSARCOMA, Tumor Site: Type of Lesion: BRAIN: NEUROBLASTOMA, LIVER, HEPATOCARCINOMA, ANGIOSARCOMA): active; positive
- carcinogen call (Species: RAT, Strain/Sex: SPRAGUE-DAWLEY/FEMALE, Route: INHALATION, Dose: 0, 6000, 10000 PPM IN AIR 1 HR/D 4 D/WK FOR 25 WK (STUDY DURATION: LIFETIME), Dose: 0, 6000, 10000 PPM IN AIR 1 HR/D 4 D/WK FOR 25 WK (STUDY DURATION: LIFETIME), Tumor Site: Type of Lesion: [BRAIN WAS ONLY SITE EVALUATED]): inactive; negative
